Reference: patent US6407064B2, “Aminoalcohol derivative and medicament comprising the same” (Seikagaku Corporation, priority 1999, dated 2002)

Tests used:
[1] = target: T1, enzyme for glucosylceramide biosynthesis (Homo sapiens, UniProt Q16739); settings: J. Lipid Res. 28: 565-571 (1987); cited from earlier work
T1 sequence (Q16739 1-394): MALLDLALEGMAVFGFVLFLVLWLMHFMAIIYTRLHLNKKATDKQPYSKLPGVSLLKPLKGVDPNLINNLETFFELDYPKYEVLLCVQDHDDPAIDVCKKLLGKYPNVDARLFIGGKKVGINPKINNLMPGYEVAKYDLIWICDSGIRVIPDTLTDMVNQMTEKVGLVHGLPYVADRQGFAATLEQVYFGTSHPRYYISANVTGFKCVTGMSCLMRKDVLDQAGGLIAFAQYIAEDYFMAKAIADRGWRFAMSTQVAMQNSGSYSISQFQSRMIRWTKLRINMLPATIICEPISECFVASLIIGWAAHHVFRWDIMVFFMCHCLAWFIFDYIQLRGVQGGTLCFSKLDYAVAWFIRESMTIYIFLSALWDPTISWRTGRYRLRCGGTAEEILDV

[2] = tested on: GSLs which are produced starting with glucosylceramide; settings: J. Lipid Res. 28: 565-571 (1987); cited from earlier work
neurite = settings: literature; cited from earlier work
synaptic function = settings: Biochem. Biophys. Res. Commun. 222: 494-498 (1996); cited from earlier work
[3] = tested on: cultured neurocytes of rat fetal cerebral cortex; test: Activity of accelerating synapse formation (intracellular calcium ion level, fura-2); format: cell-based; settings: relative value, L-PDMP regarded as 100; compound 20 μM; assay on 10th day of culture
Experimental: The activity of accelerating synapse formation was determined by measuring change of an intracellular calcium ion level resulted from the synchronized spontaneous ignition of neurocytes which is considered to show synapse activities by means of an intracellular calcium ion multipoint observation system using a calcium ion fluorescence indicator, fura-2.
Concretely, rat fetuses at the 18th day of pregnancy were taken out from Wistar rats (available from Japan SLC), and cerebral cortices of the fetuses were taken out and cut into small pieces. After having been treated with papain (manufactured by Worthington Biochemical) at 37° C. for 30 minutes, the pieces were suspended into a Dulbecco modified Eagle's medium containing 5% bovine neonatal serum and 5% equine serum and the cortices were dissociated into single cells with Cell Striner (70 μm, Falcon). Then, the cells were inoculated into a flexiperm plate coated with 0.5% polyethyleneimine (1.0×10^6 cells/500 μl/well), and was cultured in 7% CO2 incubator at 37° C. The medium was exchanged on 2nd, 5th, and 8th days after the culture had been started. The activity of the compound of the present invention was measured using the primary culture. The compound was added at the time when the medium was exchanged and the concentration of the compound was maintained to be 20 μM. Assay was carried out on 10th day after the culture had been started.
(2) Measurement of Activity of Accelerating Synapse Formation
Concretely, after the medium of each well where cells were cultured was substituted with basic salt solution (BSS), 3 μl of a DMSO solution (1 mg/ml) of a calcium ion fluorescence indicator fura-2 was added, and the whole was kept at 37° C. for 1 hour.

[4] = tested on: enzyme for ganglioside GM3 synthesis, mouse B16 melanoma cell; test: Activity of enzyme for ganglioside GM3 synthesis (14C-Gal incorporated in total lipid fraction); format: cell-based; settings: relative value, control regarded as 100; test compound 24 μM, 24 hours; 14C-Gal incorporation
Experimental: The gangliosides produced by mouse B16 melanoma cell are almost composed of ganglioside GM3. Therefore, the activity of the enzyme for ganglioside GM3 synthesis can be determined conveniently by measuring the amount of ^14C-Gal incorporated in a total lipid-extracted fraction through a liquid layer partition method.
(§1) A liquid where the cells of mouse B16 melanoma were suspended was prepared with Dulbecco modified Eagle's medium containing 10% bovine fetal serum, inoculated into a 12-well plate in an amount of 2.0×10^5 cells/ml/well, and cultured in 5% CO2 incubator at 37° C. The treatment with a test compound (24 μM) and the addition of ^14C-Gal (22.2 kBq/11.7 nmol/6 μl/well) were started through the exchange of total amount of the medium 24 hours after the culture was started. Twenty-four hours after the treatment with the test compound was started, the culture mixture was treated with PBS containing 0.02% EDTA and PBS containing 0.25% trypsin successively to recover the cells.
Then, a mixed solvent of chloroform:methanol=2:1 (3 ml) was added to the cell pellet and, after the subjection to an ultrasonication for 30 minutes, the supernatant was recovered. Furthermore, a mixed solvent of chloroform:methanol=1:1 (3 ml) was added to the residual pellet after the recovery of the supernatant, and a similar operation was carried out. The resulting supernatant was combined with the first supernatant and the whole was evaporated to dryness under a nitrogen stream. A desalinated water (1.0 ml) was added to the total lipid-extracted fraction. After having been subjected to an ultrasonication for 1 minute, the mixture was transferred into a dialysis tube and dialyzed against water for 2 days. The sample after the dialysis was transferred into a vial for liquid scintillation counter and, after the addition of scintillator, the activity of incorporating ^14C-Gal was measured on scintillation counter.
The values of activity of the compounds of the present invention are shown as relative values obtained by calculation on the basis that the value of a control (a group where no test compound was added) is regarded as 100 in Table 3 below.

[5] = tested on: ganglioside GM3, mouse B16 melanoma cells; test: Synthesized amount of ganglioside GM3 (HPTLC densitometry); format: cell-based; settings: relative value, control regarded as 100, test compound 25 μM, 24 hours
Experimental: as §1, with “culture flask (175 cm^2)” for “12-well plate”, “0.8×10^7 cells/20 ml,” for “2.0×10^5 cells/ml/well,”, “(25” for “(24”, “was” for “and the addition of ^14C-Gal (22.2 kBq/11.7 nmol/6 μl/well) were”, “three fourths” for “total amount”
Then, a mixed solvent of chloroform:methanol=2:1 (4 ml) was added to the cell pellet and, after the subjection to an ultrasonication for 30 minutes, the cell pellet solution was allowed to stand at room temperature for a night and the supernatant was recovered. Furthermore, a mixed solvent of chloroform:methanol=1:1 (4 ml) was added to the residual pellet after the recovery of the supernatant, and a similar operation was carried out. The resulting supernatant was combined with the first supernatant and the whole was evaporated to dryness under a nitrogen stream. To the total lipid fraction was added a 0.1 N methanolic sodium hydroxide solution (2.0 ml) and the mixture was allowed to stand at 40° C. for 2 hours. Thereafter, 1 N hydrochloric acid (0.2 ml) was added thereto and the mixture was allowed to stand for 1.5 hours.
Then, the mixture was washed with n-hexane (2 ml×2) and, after the lower layer thus washed was evaporated to dryness under a nitrogen stream, the residue was desalinated by gel filtration chromatography (Sephadex LH-20 (manufactured by Amersham Pharmacia Biotech), diameter of 10 mm, height of 120 mm) using chloroform:methanol=2:1 as the eluting solvent. […] After orcinol-sulfuric acid reagent had been sprayed on the plate, it was heated at 110° C. for 5 minutes and colored spot of ganglioside GM3 was quantitatively determined by means of densitometer (a measuring wavelength of 505 nm). […]

Compound | effect on enzyme for glucosylceramide biosynthesis [1] | intracellular content of GSLs [2] | effect on neurite extension (neurite) | effect on synaptic function (synaptic function) | Activity of synapse formation [3] | Activity of accelerating glycolipid biosynthesis (Test Example 2) [4] | Glycolipid content (Test Example 3) [5]
CCCCCCCCCC(=O)N[C@H](CN1CCOCC1)[C@H](O)c1ccccc1 [D-threo-PDMP, D-threo-1-phenyl-2-decanoylamino-3-morpholino-1-propanol] | specifically inhibits | remarkably reduces intracellular content of all GSLs | suppresses the extension of neurite | suppresses synaptic function |  |  | 
CCCCOC(=O)CCC(=O)N[C@@H](CN1CCOCC1)[C@@H](O)c1ccccc1 [Example 5, (1S,2S)-2-(n-butoxy)butanedioylamino-3-morpholino-1-phenyl-1-propanol] |  |  |  |  | 92.5 | 122.3 | 131.2
O=C(O)CCCCCCCCC(=O)N[C@@H](CN1CCOCC1)[C@@H](O)c1ccccc1 [Example 25, (1S,2S)-2-(9-carboxynonanoyl)amino-3-morpholino-1-phenyl-1-propanol] |  |  |  |  |  | 89.2 | 114.5
